# Reference: patent publication US20060247129A1, “Surfactant compounds and agrochemical compositions” (Imperial Chemical Industries PLC, priority 2003, published 2006)
# Tests used:
# Test in all cases: glasshouse herbicide spray test, % weed control, adjuvant with glyphosate potassium salt
# Type in all cases: in vivo
# Conditions in all cases: 19 days after treatment
# Portulaca oleracea = tested on: Portulaca oleracea
# Experimental: (§1) The compound of Synthesis Example SE1 was tested as an adjuvant with glyphosate potassium salt, mixing the glyphosate and adjuvant in a tank mix using concentrations of glyphosate from 0.125 to 2 g.l-1 and of adjuvant from 0.003125 to 0.2% v/v. The tank mixes were sprayed as a herbicide on a variety of test species at an application rate of 200 l.ha^−1 to give application rates of glyphosate of from 25 to 400 g (active ingredient).ha^−1. The plants were grown in a warm glasshouse and assessed 19 days after treatment for % control—the mean of three replicates for visually assessed % weed control, relative to unsprayed plants of each species in the same test.
# (§2) Example AE1 was repeated but using the compound made in Synthesis Example SE4 as the adjuvant.
# Solanum nigra = tested on: Solanum nigra
# Experimental: as §1, §2
# Abutilon Theophrasti = tested on: Abutilon Theophrasti
# Experimental: as §1, §2
# Sorghum halepense = tested on: Sorghum halepense
# Experimental: as §1, §2
# Echinochloa crus-galli = tested on: Echinochloa crus-galli
# Experimental: as §1, §2
# Sida Spinosa = tested on: Sida Spinosa
# Experimental: as §1, §2
# [1] = glyphosate 50 g ai/ha, adjuvant 0.003125 % v/v
# [2] = glyphosate 50 g ai/ha, adjuvant 0.0125 % v/v
# [3] = glyphosate 50 g ai/ha, adjuvant 0.05 % v/v
# [4] = glyphosate 50 g ai/ha, adjuvant 0.2 % v/v
# [5] = glyphosate 100 g ai/ha, adjuvant 0.003125 % v/v
# [6] = glyphosate 100 g ai/ha, adjuvant 0.0125 % v/v
# [7] = glyphosate 100 g ai/ha, adjuvant 0.05 % v/v
# [8] = glyphosate 100 g ai/ha, adjuvant 0.2 % v/v
# [9] = glyphosate 200 g ai/ha, adjuvant 0.003125 % v/v
# [10] = glyphosate 200 g ai/ha, adjuvant 0.0125 % v/v
# [11] = glyphosate 200 g ai/ha, adjuvant 0.05 % v/v
# [12] = glyphosate 200 g ai/ha, adjuvant 0.2 % v/v
# [13] = glyphosate 400 g ai/ha, adjuvant 0.003125 % v/v
# [14] = glyphosate 400 g ai/ha, adjuvant 0.0125 % v/v
# [15] = glyphosate 400 g ai/ha, adjuvant 0.05 % v/v
# [16] = glyphosate 400 g ai/ha, adjuvant 0.2 % v/v
# [17] = glyphosate 25 g ai/ha, adjuvant 0.003125 % v/v
# [18] = glyphosate 25 g ai/ha, adjuvant 0.0125 % v/v
# [19] = glyphosate 25 g ai/ha, adjuvant 0.05 % v/v
# [20] = glyphosate 25 g ai/ha, adjuvant 0.2 % v/v
substance,measurement,setting,value
Random 8-ethoxylate-2-propoxylate of N-methyl glucamine C8/C10 glycidyl ether [SE1],% control POROC,Portulaca oleracea; [1],7%
same,% control POROC,Portulaca oleracea; [2],4%
same,% control POROC,Portulaca oleracea; [3],12%
same,% control POROC,Portulaca oleracea; [4],30%
same,% control POROC,Portulaca oleracea; [5],8%
same,% control POROC,Portulaca oleracea; [6],9%
same,% control POROC,Portulaca oleracea; [7],18%
same,% control POROC,Portulaca oleracea; [8],37%
same,% control POROC,Portulaca oleracea; [9],23%
same,% control POROC,Portulaca oleracea; [10],20%
same,% control POROC,Portulaca oleracea; [11],45%
same,% control POROC,Portulaca oleracea; [12],64%
same,% control POROC,Portulaca oleracea; [13],42%
same,% control POROC,Portulaca oleracea; [14],43%
same,% control POROC,Portulaca oleracea; [15],60%
same,% control POROC,Portulaca oleracea; [16],73%
same,% control SOLNI,Solanum nigra; [1],37%
same,% control SOLNI,Solanum nigra; [2],35%
same,% control SOLNI,Solanum nigra; [3],48%
same,% control SOLNI,Solanum nigra; [4],50%
same,% control SOLNI,Solanum nigra; [5],62%
same,% control SOLNI,Solanum nigra; [6],68%
same,% control SOLNI,Solanum nigra; [7],68%
same,% control SOLNI,Solanum nigra; [8],77%
same,% control SOLNI,Solanum nigra; [9],80%
same,% control SOLNI,Solanum nigra; [10],81%
same,% control SOLNI,Solanum nigra; [11],81%
same,% control SOLNI,Solanum nigra; [12],79%
same,% control SOLNI,Solanum nigra; [13],80%
same,% control SOLNI,Solanum nigra; [14],81%
same,% control SOLNI,Solanum nigra; [15],79%
same,% control SOLNI,Solanum nigra; [16],82%
same,% control ABUTH,Abutilon Theophrasti; [1],33%
same,% control ABUTH,Abutilon Theophrasti; [2],33%
same,% control ABUTH,Abutilon Theophrasti; [3],38%
same,% control ABUTH,Abutilon Theophrasti; [4],27%
same,% control ABUTH,Abutilon Theophrasti; [5],53%
same,% control ABUTH,Abutilon Theophrasti; [6],35%
same,% control ABUTH,Abutilon Theophrasti; [7],43%
same,% control ABUTH,Abutilon Theophrasti; [8],42%
same,% control ABUTH,Abutilon Theophrasti; [9],62%
same,% control ABUTH,Abutilon Theophrasti; [10],66%
same,% control ABUTH,Abutilon Theophrasti; [11],66%
same,% control ABUTH,Abutilon Theophrasti; [12],70%
same,% control ABUTH,Abutilon Theophrasti; [13],81%
same,% control ABUTH,Abutilon Theophrasti; [14],82%
same,% control ABUTH,Abutilon Theophrasti; [15],79%
same,% control ABUTH,Abutilon Theophrasti; [16],83%
same,% control SORHA,Sorghum halepense; [17],17%
same,% control SORHA,Sorghum halepense; [18],7%
same,% control SORHA,Sorghum halepense; [19],8%
same,% control SORHA,Sorghum halepense; [20],45%
same,% control SORHA,Sorghum halepense; [1],40%
same,% control SORHA,Sorghum halepense; [2],22%
same,% control SORHA,Sorghum halepense; [3],20%
same,% control SORHA,Sorghum halepense; [4],84%
same,% control SORHA,Sorghum halepense; [5],90%
same,% control SORHA,Sorghum halepense; [6],81%
same,% control SORHA,Sorghum halepense; [7],72%
same,% control SORHA,Sorghum halepense; [8],92%
same,% control SORHA,Sorghum halepense; [9],93%
same,% control SORHA,Sorghum halepense; [10],91%
same,% control SORHA,Sorghum halepense; [11],91%
same,% control SORHA,Sorghum halepense; [12],96%
same,% control ECHCG,Echinochloa crus-galli; [17],15%
same,% control ECHCG,Echinochloa crus-galli; [18],10%
same,% control ECHCG,Echinochloa crus-galli; [19],22%
same,% control ECHCG,Echinochloa crus-galli; [20],37%
same,% control ECHCG,Echinochloa crus-galli; [1],48%
same,% control ECHCG,Echinochloa crus-galli; [2],47%
same,% control ECHCG,Echinochloa crus-galli; [3],58%
same,% control ECHCG,Echinochloa crus-galli; [4],70%
same,% control ECHCG,Echinochloa crus-galli; [5],85%
same,% control ECHCG,Echinochloa crus-galli; [6],82%
same,% control ECHCG,Echinochloa crus-galli; [7],84%
same,% control ECHCG,Echinochloa crus-galli; [8],89%
same,% control ECHCG,Echinochloa crus-galli; [9],92%
same,% control ECHCG,Echinochloa crus-galli; [10],90%
same,% control ECHCG,Echinochloa crus-galli; [11],93%
same,% control ECHCG,Echinochloa crus-galli; [12],97%
same,% control SIDSP,Sida Spinosa; [1],30%
same,% control SIDSP,Sida Spinosa; [2],38%
same,% control SIDSP,Sida Spinosa; [3],42%
same,% control SIDSP,Sida Spinosa; [4],31%
same,% control SIDSP,Sida Spinosa; [5],33%
same,% control SIDSP,Sida Spinosa; [6],48%
same,% control SIDSP,Sida Spinosa; [7],48%
same,% control SIDSP,Sida Spinosa; [8],55%
same,% control SIDSP,Sida Spinosa; [9],63%
same,% control SIDSP,Sida Spinosa; [10],48%
same,% control SIDSP,Sida Spinosa; [11],72%
same,% control SIDSP,Sida Spinosa; [12],79%
same,% control SIDSP,Sida Spinosa; [13],79%
same,% control SIDSP,Sida Spinosa; [14],73%
same,% control SIDSP,Sida Spinosa; [15],83%
same,% control SIDSP,Sida Spinosa; [16],78%
